Test results from patent US11365204B2, “Substituted dihydrothienopyrimidines and their use as phosphodiesterase inhibitors” (UNION therapeutics A/S, priority 2017, dated 2022).
pIC50: −log10 of the molar value.

Tests used:
[1] = target: human PDE4D catalytic domain (UniProt no. Q08499 [S380-L740]) (Homo sapiens (Human), UniProt Q08499); experiment: PDE4 assay (TR-FRET, cAMP hydrolysis); format: biochemical; settings: read-out: PDE4 IC50 range
Outline: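 The human PDE4D catalytic domain (S380-L740) was incubated with unlabelled plus FAM-labelled cAMP and titrated compound, briefly. Product AMP was detected by Tb-nanoparticle TR-FRET. IC50 (nM) came from Tb-normalized signal scaled between DMSO and 10 microM reference-inhibitor controls.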

[2] = tested on: Human peripheral blood mononuclear cells (PBMC); experiment: TNF-α release from LPS-stimulated PBMC; format: cell-based; settings: Lipopolysaccharide 1 microg/ml, 18 hours, AlphaLISA, read-out: TNF-α IC50 range
Outline: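 Thawed human PBMC in serum-free buffer with 0.5% human serum albumin were stimulated with 1 microg/ml LPS alongside titrated compound for 18 h at 37 °C. Supernatant TNFα was measured by AlphaLISA at 615 nm, and IC50 was derived relative to LPS-only and 10 microM reference PDE4 inhibitor controls.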

Chain of human PDE4D catalytic domain (Q08499 380-740): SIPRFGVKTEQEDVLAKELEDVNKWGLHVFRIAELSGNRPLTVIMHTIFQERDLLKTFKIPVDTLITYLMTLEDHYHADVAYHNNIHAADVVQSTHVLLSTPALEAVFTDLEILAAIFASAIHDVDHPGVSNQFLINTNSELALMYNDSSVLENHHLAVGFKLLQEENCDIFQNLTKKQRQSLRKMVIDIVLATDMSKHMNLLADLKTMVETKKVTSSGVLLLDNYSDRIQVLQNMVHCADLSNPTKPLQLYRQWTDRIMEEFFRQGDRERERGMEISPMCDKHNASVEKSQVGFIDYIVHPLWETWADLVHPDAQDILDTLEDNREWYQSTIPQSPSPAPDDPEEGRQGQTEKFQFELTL

CC(=O)N1CC[C@H](Nc2nc(N3CC(OC(=O)C4CCOCC4)C3)nc3c2[S@+](O)CC3)C1 [Example 74, [1-[4-[[(3S)-1-acetyl-pyrrolidin-3-yl]amino]-5-oxido-6,7-dihydro-thieno[3,2-d]pyrimidin-5-ium-2-yl]azetidin-3-yl]tetrahydropyran-4-carboxylate]
pIC50 [1]: > 7.00 | pIC50 [2]: 6.30 to 7.00

CC(=O)N1CC[C@@H](Nc2nc(N3CC(OC(=O)C4CCOCC4)C3)nc3c2[S@+](O)CC3)C1 [Example 75, [1-[4-[[(3R)-1-acetyl-pyrrolidin-3-yl]amino]-5-oxido-6,7-dihydro-thieno[3,2-d]pyrimidin-5-ium-2-yl]azetidin-3-yl] tetrahydropyran-4-carboxylate]
pIC50 [1]: < 6.30 | pIC50 [2]: < 6.30

CC(=O)N1CCC(Nc2nc(N3CC(OC(=O)c4cscn4)C3)nc3c2[S+](O)CC3)CC1 (centres unmarked) [Example 76, [1-[4-[(1-acetyl-4-piperidyl)amino]-5-oxido-6,7-dihydrothieno[3,2-d]pyrimidin-5-ium-2-yl]-azetidin-3-yl] thiazole-4-carboxylate]
pIC50 [1]: 6.30 to 7.00 | pIC50 [2]: < 6.30

CC(=O)N1CCC(Nc2nc(N3CC(OC(=O)C4CCOCC4)C3)nc3c2[S+](O)CC3)CC1 (centres unmarked) [Example 77, [1-[4-[(1-acetyl-4-piperidyl)amino]-5-oxido-6,7-dihydrothieno[3,2-d]pyrimidin-5-ium-2-yl]azetidin-3-yl] tetra-hydropyran-4-carboxylate]
pIC50 [1]: 6.30 to 7.00 | pIC50 [2]: 6.30 to 7.00
